Assay results as given in patent US12545637B2, “Extrahepatic targeted cationic lipid compound with high efficiency and low toxicity and its composition” (BEIJING YOUCARE KECHUANG PHARMACEUTICAL TECHNOLOGY CO., LTD., priority 2023, dated 2026).
Where “and” joins values, the source holds several entries; their conditions need not be identical. Equal values may be shown once.

Assays:
293T cells [1] = assay: Fluorescent detection of Fluc-mRNA (cell transfection efficiency of LNP formulations); format: cell-based
293T cells [2] = assay: Cell survival rate assay (CCK-8); format: cell-based
How it was run: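 293T cells seeded at 10,000 cells/well, cultured overnight, then exposed 24 h to LNP carrying 1.5 μg Fluc-mRNA (cationic:neutral:structured:PEG-type lipid 49:10:39.5:1.5) or Lipofectamine 3000. Viability read by CCK-8, 1 h incubation, absorbance at 450 nm.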

female BALB/C mice [3] = assay: In vivo imaging in mice of Fluc-mRNA LNP formulations (mRNA expression and duration)
How it was run: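 Female BALB/C mice (4-6 weeks, 17-19 g) received LNP carrying […] Fluc-mRNA intramuscularly. At 6h, 24 h, 48h and 7d, fluorescent imaging substrate was given intraperitoneally and after 5 minutes average radiance, as a measure of expressed protein, was imaged on an IVIS Spectrum system.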

female BALB/C mice [4] = assay: Distribution of liposomes in mice (protein expression in liver, spleen, lung, heart and kidney); format: in vivo; conditions: mouse, in vivo
Protocol: The LNP formulation (prepared according to Example 4) containing […] Fluc-mRNA was injected intramuscularly into female BALB/C mice aged 4-6 weeks and weighed 17-19 g, and the mice were intraperitoneally injected with fluorescent imaging substrate at specific time points after administration (6h, 24 h, 48h and 7d), where the mice were allowed to free move for 5 minutes, and then the average radiation intensity (corresponding to fluorescence expression intensity) of the protein expression of the mRNA carried by the LNP in the mice was detected by the IVIS Spectrum small animal in vivo imaging system.
Current mRNA vaccines usually express proteins in muscle.

293T cells [5] = assay: Fluorescent detection of Fluc-mRNA (cell transfection efficiency of LNP formulations); format: cell-based; remark: listed apart in the source

CCCCCCCCCCCOC(=O)CCCN(CCO)CCN(CCO)CCCCCC(=O)OC(CCCCCCCC)CCCCCCCC [YK-407]
Relative light unit (RLU) (293T cells [1]; LNP with 0.3 μg Fluc-mRNA, 96-well plate, 24 hours): 20385506 RLU
cell transfection efficiency, times that of YK-415 (293T cells [1]; ratio vs YK-415): 68.40
cell transfection efficiency, times that of YK-417 (293T cells [1]; ratio vs YK-417): 173.81 and 170
cell transfection efficiency, times that of YK-418 (293T cells [1]; ratio vs YK-418): 183.24 and 180
cell transfection efficiency, times that of YK-424 (293T cells [1]; ratio vs YK-424): 7.07
RLU value, times that of compound 21 (293T cells [1]; ratio vs compound 21): 13.49 and 13
RLU value, times that of compound 23 (293T cells [1]; ratio vs compound 23): 14.53 and 15
Cell survival rate (293T cells [2]; LNP with 1.5 μg Fluc-mRNA, 24 hours, CCK-8): 71.37%
cell survival rate higher than ALC-0315 (293T cells [2]; difference vs ALC-0315): 24.16%
cell survival rate higher than HIMA (293T cells [2]; difference vs HIMA (HHMA)): 7.10%
cell survival rate higher than Lipofectamine 3000 (293T cells [2]; difference vs Lipofectamine 3000): 49.71%
cell survival rate higher than SM-102 (293T cells [2]; difference vs SM-102): 3.47%
cell survival rate higher than YK-404 (293T cells [2]; difference vs YK-404): 29.25%
cell survival rate higher than YK-405 (293T cells [2]; difference vs YK-405): 29.51%
cell survival rate higher than YK-406 (293T cells [2]; difference vs YK-406): 46.41%
cell survival rate higher than YK-408 (293T cells [2]; difference vs YK-408): 29.06%
cell survival rate higher than YK-409 (293T cells [2]; difference vs YK-409): 25.26%
cell survival rate higher than YK-410 (293T cells [2]; difference vs YK-410): 26.45%
cell survival rate higher than YK-411 (293T cells [2]; difference vs YK-411): 55.04%
cell survival rate higher than YK-412 (293T cells [2]; difference vs YK-412): 17.23%
cell survival rate higher than YK-413 (293T cells [2]; difference vs YK-413): 24.17%
cell survival rate higher than YK-414 (293T cells [2]; difference vs YK-414): 42.62%
cell survival rate higher than YK-415 (293T cells [2]; difference vs YK-415): 10.21%
cell survival rate higher than YK-416 (293T cells [2]; difference vs YK-416): 30.40%
cell survival rate higher than YK-417 (293T cells [2]; difference vs YK-417): 50.03%
cell survival rate higher than YK-418 (293T cells [2]; difference vs YK-418): 50.32%
cell survival rate higher than YK-419 (293T cells [2]; difference vs YK-419): 32.45%
cell survival rate higher than YK-420 (293T cells [2]; difference vs YK-420): 35.78%
cell survival rate higher than YK-421 (293T cells [2]; difference vs YK-421): 35.66%
cell survival rate higher than YK-424 (293T cells [2]; difference vs YK-424): 43.44%
cell survival rate higher than compound 21 (293T cells [2]; difference vs compound 21): 3.53%
cell survival rate higher than compound 23 (293T cells [2]; difference vs compound 23): 2.26%
cytotoxicity reduced compared with YK-411 (293T cells [2]; rounded summary statement vs YK-411): 50% and 55%
average radiation intensity, times that of ALC-0315 (female BALB/C mice [3]; 6 h): 4.76
average radiation intensity, times that of HHMA (female BALB/C mice [3]; 6 h): 6.05
average radiation intensity, times that of SM-102 (female BALB/C mice [3]; 6 h): 5.79
average radiation intensity, times that of compound 21 (female BALB/C mice [3]; 6 h): 6.66
average radiation intensity, times that of compound 23 (female BALB/C mice [3]; 6 h): 6.88
expression amount in mice, times that of YK-415 (female BALB/C mice [3]; 6 h): 33.96
expression amount in mice, times that of YK-417 (female BALB/C mice [3]; 6 h): 66.16
average radiation intensity, times that of ALC-0315 (female BALB/C mice [3]; 24 h): 10.62
average radiation intensity, times that of HHMA (female BALB/C mice [3]; 24 h): 16.80
average radiation intensity, times that of SM-102 (female BALB/C mice [3]; 24 h): 16.34
average radiation intensity, times that of compound 21 (female BALB/C mice [3]; 24 h): 18.15
average radiation intensity, times that of compound 23 (female BALB/C mice [3]; 24 h): 19.97
expression amount in mice, times that of YK-415 (female BALB/C mice [3]; 24 h): 31.25
expression amount in mice, times that of YK-417 (female BALB/C mice [3]; 24 h): 100.86
mRNA expression in mice, times that of YK-411 (female BALB/C mice [3]; 24 h): 996.97 and 1000
average radiation intensity, times that of ALC-0315 (female BALB/C mice [3]; 48 h): 22 and 22.06
average radiation intensity, times that of HHMA (female BALB/C mice [3]; 48 h): 27 and 26.55
average radiation intensity, times that of SM-102 (female BALB/C mice [3]; 48 h): 27 and 26.93
average radiation intensity, times that of compound 21 (female BALB/C mice [3]; 48 h): 28 and 28.07
average radiation intensity, times that of compound 23 (female BALB/C mice [3]; 48 h): 27 and 26.89
expression amount in mice, times that of YK-415 (female BALB/C mice [3]; 48 h): 56.07
expression amount in mice, times that of YK-417 (female BALB/C mice [3]; 48 h): 125.66 and 120
mRNA expression in mice, times that of YK-411 (female BALB/C mice [3]; 48 h): 907.99
average radiation intensity, times that of ALC-0315 (female BALB/C mice [3]; 7 d): 6.90
average radiation intensity, times that of HHMA (female BALB/C mice [3]; 7 d): 8.13
average radiation intensity, times that of SM-102 (female BALB/C mice [3]; 7 d): 7.20
average radiation intensity, times that of compound 21 (female BALB/C mice [3]; 7 d): 7.59
average radiation intensity, times that of compound 23 (female BALB/C mice [3]; 7 d): 7.93
expression amount in mice, times that of YK-415 (female BALB/C mice [3]; 7 d): 11.98
expression amount in mice, times that of YK-417 (female BALB/C mice [3]; 7 d): 21.20 and 20
mRNA expression in mice, times that of YK-411 (female BALB/C mice [3]; 7 d): 100.85 and 100
average radiation intensity, 6 h (female BALB/C mice [3]; Fluc-mRNA LNP intramuscular, 6 h after administration): 4001500
average radiation intensity, 24 h (female BALB/C mice [3]; Fluc-mRNA LNP intramuscular, 24 h after administration): 2015870
average radiation intensity, 48 h (female BALB/C mice [3]; Fluc-mRNA LNP intramuscular, 48 h after administration): 885288
average radiation intensity, 7 d (female BALB/C mice [3]; Fluc-mRNA LNP intramuscular, 7 d after administration): 48410
protein expression in the liver (female BALB/C mice [4]): had no protein expression in the liver
protein expression in the spleen (female BALB/C mice [4]): had protein expression in the spleen
RLU value, times that of ALC-0315 (293T cells [5]; ratio vs ALC-0315): 9.31
RLU value, times that of HHMA (293T cells [5]; ratio vs HHMA): 9.81
RLU value, times that of Lipofectamine 3000 (293T cells [5]; ratio vs Lipofectamine 3000): 16.98
RLU value, times that of YK-009 (293T cells [5]; ratio vs YK-009): 3.96
RLU value, times that of YK-405 (293T cells [5]; ratio vs YK-405): 6.37
RLU value, times that of YK-406 (293T cells [5]; ratio vs YK-406): 260.51
RLU value, times that of YK-408 (293T cells [5]; ratio vs YK-408): 13.83
RLU value, times that of YK-409 (293T cells [5]; ratio vs YK-409): 30.43
RLU value, times that of YK-410 (293T cells [5]; ratio vs YK-410): 49.98
cell transfection efficiency, times that of YK-412 (293T cells [5]; ratio vs YK-412): 6.05
cell transfection efficiency, times that of YK-413 (293T cells [5]; ratio vs YK-413): 14.80
cell transfection efficiency, times that of YK-414 (293T cells [5]; ratio vs YK-414): 45.90
cell transfection efficiency, times that of YK-416 (293T cells [5]; ratio vs YK-416): 5.13
cell transfection efficiency, times that of YK-419 (293T cells [5]; ratio vs YK-419): 6.44
cell transfection efficiency, times that of YK-420 (293T cells [5]; ratio vs YK-420): 5.07
cell transfection efficiency, times that of YK-421 (293T cells [5]; ratio vs YK-421): 43.69
